Laboratory results published in ChEMBL document CHEMBL5725691, “Bromodomain inhibitors” (2018).

The compounds below were run against Bromodomain-containing protein 4 (Homo sapiens, UniProt O60885) (assay: His-tagged BRD4 was cloned, expressed and purified to homogeneity. […] BRD4 binding and inhibition was assessed by monitoring the interaction of biotinylated H4-tetraacetyl peptide (AnaSpec, H4K5/8/12/16(Ac), biotin-labeled) with the target using the AlphaScreen technology (Life Technologies). […] After 20 min incubation at room temp, Alpha streptavidin donor beads and Nickel Chelate acceptor beads were added to a final concentration of 5 μg/mL.).

| Structure (SMILES) | IC50 |
| --- | --- |
| CCS(=O)(=O)Nc1ncc(Oc2ccc(F)cc2F)c(-c2cc(OC)c(=O)n(C)c2)n1 | < 500 nM |
| Cc1cc(-c2cc(OCc3ccccc3Cl)cc(S(C)(=O)=O)c2)cn(C)c1=O | < 500 nM |
| CCS(=O)(=O)c1ccc(NCC2CC2)c(-c2cc(Cl)c(=O)n(C)c2)c1 | < 500 nM |
| CCCOc1ccc(S(C)(=O)=O)cc1-c1cn(C)c(=O)c2cnc(-c3cnn(C)c3)nc12 | < 500 nM |
| Cc1cc(-c2cn(CS(C)(=O)=O)c(=O)cc2Oc2ccc(F)cc2F)cn(CC2CC2)c1=O | < 500 nM |
| CCS(=O)(=O)c1ccc(OCC2CC2)c(-c2cn(C)c(=O)c3c2OCC(=O)N3)c1 | < 500 nM |
| Cc1c(-c2cc(NS(C)(=O)=O)ccc2Oc2ccc(F)cc2F)cn(C)c(=O)c1C | < 500 nM |
| Cn1cc(-c2cc(S(C)(=O)=O)ccc2OCC2CC2)c2cc(C(F)(F)F)ccc2c1=O | < 500 nM |
